The data set in a line: pH-dependent solubility of Compound A. To be noted: particularly between pH 1-4. It is filed as physicochemical.

The structures appear in SMILES notation.

Take `COC(=O)N[C@H](C(=O)N1CCC[C@H]1c1ncc(-c2cc(F)c3c(c2)O[C@@H](c2cnc(C4CC4)s2)n2c-3cc3cc(-c4cnc([C@@H]5CCCN5C(=O)[C@@H](NC(=O)OC)C(C)C)[nH]4)ccc32)[nH]1)C(C)C` [Compound A, dimethyl ((2S,2′S)-((2S,2′S)-2,2′-(5,5′-((S)-6-(2-cyclopropylthiazol-5-yl)-1-fluoro-6H-benzo[5,6][1,3]oxazino[3,4-a]indole-3,10-diyl)bis(1H-imidazole-5,2-diyl))bis(pyrrolidine-2,1-diyl))bis(3-methyl-1-oxobutane-2,1-diyl))dicarbamate]: the solubility profile entry is “sharp pH-dependent solubility profile”.

Values taken from patent publication US20250009751A1, “FORMULATIONS OF ANTIVIRAL COMPOUNDS” (Merck Sharp & Dohme LLC, priority 2018, published 2025).
